Data reported in US6469149B1 (priority 1997, dated 2002).

What was measured:
[1] = system: ascorbic acid synthesis; details: literature statement; cited from earlier work
[2] = target: T1, L-galactono-γ-lactone dehydrogenase (Brassica oleracea, UniProt O47881); experiment: GLDase activity in the presence of lycorine (reduction of cytochrome c, absorption at 550 nm); assay type: biochemical, cauliflower (Brassica olecera var. botrytis); design: Activity of the enzyme expressed in increase in absorption at 550 nm/second: scale not given here
T1 construct: The resulting mature protein of 509 amino acids has a calculated molecular mass of 57,837 Da; from tissue; host or cells: cauliflower florets (mitochondrial pellet, acetone-precipitated extract; DEAE, Phenyl Sepharose and Sephacryl gel filtration fractions)
T1 sequence (O47881 92-600): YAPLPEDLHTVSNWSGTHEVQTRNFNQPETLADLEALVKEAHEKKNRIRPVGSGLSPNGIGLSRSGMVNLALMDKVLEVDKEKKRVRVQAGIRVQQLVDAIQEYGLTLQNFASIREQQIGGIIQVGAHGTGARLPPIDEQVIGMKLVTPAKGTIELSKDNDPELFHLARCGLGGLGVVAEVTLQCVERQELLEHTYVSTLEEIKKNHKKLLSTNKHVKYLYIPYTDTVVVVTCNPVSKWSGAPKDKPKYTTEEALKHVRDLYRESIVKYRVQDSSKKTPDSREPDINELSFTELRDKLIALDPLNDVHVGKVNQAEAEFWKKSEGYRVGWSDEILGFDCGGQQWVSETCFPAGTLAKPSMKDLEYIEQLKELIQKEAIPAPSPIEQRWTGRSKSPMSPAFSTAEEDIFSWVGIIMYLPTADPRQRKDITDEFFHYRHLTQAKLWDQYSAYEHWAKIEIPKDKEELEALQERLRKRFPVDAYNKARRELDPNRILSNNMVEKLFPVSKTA
Protocol: The GLDase activity of the fractions was is determined spectrophotometrically by monitoring the L-galactono-γ-lactone dehydrogenase-dependent reduction of cytochrome c at 22° C. A typical reaction mixture contained the enzyme extract, 1.5 mg/ml cytochrome c and 4.2 mM L-galactono-γ-lactone in 0.05 M Tris-HCl buffer (pH 8.4). Reduction of cytochrome c was monitored by determining the absorption increase at 550 nm. Under these conditions the speed of the reaction was linear in respect of time for an initial period of 15 minutes. One unit of enzyme activity was defined as the quantity of enzyme reducing 2 μmol of cytochrome C per minute.
Lycorine was isolated from the plant Crinum asiaticum and the identity of the isolated product was verified by NMR, electron spray mass spectrometry HPLC analysis and capillary electrophoresis. Fractions of L-galactono-γ-lactone dehydrogenase activity isolated from the gel filtration column were tested for their activity in two different buffers in the presence of 5 or 50 μM lycorine (see table 3).

[3] = target: T2, L-galactono-γ-lactone dehydrogenase (Arabidopsis thaliana, UniProt Q9SU56); details: literature (De Tullio et al. 1994; Arrigoni et al. 1996); cited from earlier work
T2 sequence (Q9SU56 102-610): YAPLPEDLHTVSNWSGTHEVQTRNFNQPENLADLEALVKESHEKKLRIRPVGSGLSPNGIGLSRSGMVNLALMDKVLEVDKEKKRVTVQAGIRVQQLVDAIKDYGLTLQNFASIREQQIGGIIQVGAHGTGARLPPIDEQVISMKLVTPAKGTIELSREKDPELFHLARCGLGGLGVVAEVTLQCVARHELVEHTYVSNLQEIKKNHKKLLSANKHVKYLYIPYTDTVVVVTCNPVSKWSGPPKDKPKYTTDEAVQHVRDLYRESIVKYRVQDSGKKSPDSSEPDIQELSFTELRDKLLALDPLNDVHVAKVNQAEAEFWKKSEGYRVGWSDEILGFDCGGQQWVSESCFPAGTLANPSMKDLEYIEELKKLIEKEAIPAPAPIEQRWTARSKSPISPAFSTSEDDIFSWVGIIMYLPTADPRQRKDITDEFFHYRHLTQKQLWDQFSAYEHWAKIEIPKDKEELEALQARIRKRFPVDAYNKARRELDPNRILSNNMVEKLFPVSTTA

O[C@H]1[C@H]2c3cc4c(cc3CN3CCC(=C[C@@H]1O)[C@H]23)OCO4 [lycorine]
Concentration at which ascorbic acid synthesis is inhibited [1]: ≥ 1 µM
Activity of the enzyme expressed in increase in absorption at 550 nm/second ([2]; 5 μM lycorine, 75 mM PO4 pH 7.0, 0 μM control 0.980): 0.857 absorption at 550 nm/second
Activity of the enzyme expressed in increase in absorption at 550 nm/second ([2]; 5 μM lycorine, 75 mM PO4 pH 7.5, 0 μM control 1.385): 1.372 absorption at 550 nm/second
Activity of the enzyme expressed in increase in absorption at 550 nm/second ([2]; 5 μM lycorine, 75 mM PO4 pH 8, 0 μM control 1.882): 1.690 absorption at 550 nm/second
Activity of the enzyme expressed in increase in absorption at 550 nm/second ([2]; 5 μM lycorine, 75 mM Tris pH 7.4, 0 μM control 3.627): 3.927 absorption at 550 nm/second
Activity of the enzyme expressed in increase in absorption at 550 nm/second ([2]; 5 μM lycorine, 75 mM Tris pH 8.2, 0 μM control 6.365): 6.400 absorption at 550 nm/second
Activity of the enzyme expressed in increase in absorption at 550 nm/second ([2]; 5 μM lycorine, 75 mM Tris pH 8.9, 0 μM control 5.438): 5.199 absorption at 550 nm/second
Activity of the enzyme expressed in increase in absorption at 550 nm/second ([2]; 50 μM lycorine, 75 mM PO4 pH 7.0, 0 μM control 0.980): 0.842 absorption at 550 nm/second
Activity of the enzyme expressed in increase in absorption at 550 nm/second ([2]; 50 μM lycorine, 75 mM PO4 pH 7.5, 0 μM control 1.385): 1.254 absorption at 550 nm/second
Activity of the enzyme expressed in increase in absorption at 550 nm/second ([2]; 50 μM lycorine, 75 mM PO4 pH 8, 0 μM control 1.882): 1.768 absorption at 550 nm/second
Activity of the enzyme expressed in increase in absorption at 550 nm/second ([2]; 50 μM lycorine, 75 mM Tris pH 7.4, 0 μM control 3.627): 3.743 absorption at 550 nm/second
Activity of the enzyme expressed in increase in absorption at 550 nm/second ([2]; 50 μM lycorine, 75 mM Tris pH 8.2, 0 μM control 6.365): 6.127 absorption at 550 nm/second
Activity of the enzyme expressed in increase in absorption at 550 nm/second ([2]; 50 μM lycorine, 75 mM Tris pH 8.9, 0 μM control 5.438): 5.507 absorption at 550 nm/second
Effect on GLDase activity ([2]; 100 μM lycorine, additional tests): did not show a decrease in activity
Effect on GLDase activity after pre-incubation ([2]; pre-incubation of one hour of the enzyme with lycorine): did not influence the enzyme activity
Sensitivity of the isolated GLDase to lycorine ([2]; up to a concentration of 50 μM): lycorine-insensitive
Inhibition of L-galactono-γ-lactone dehydrogenase [3]: inhibited
